Measurements reported in patent publication US20250295656A1, “COMBINATION OF LURBINECTEDIN AND IMMUNE CHECKPOINT INHIBITORS” (priority 2020, published 2025).

Tested on: MCA205 fibrosarcoma
Experiment: Anticancer vaccination with lurbinectedin-treated dying MCA205 cells and rechallenge
Assay type: in vivo, immunocompetent C57BL/6 mice
Settings: MCA205 cells treated with 1 μM lurbinectedin injected s.c., rechallenge with live cells one week later
Procedure: MCA205 cells treated for 20 h with 1 μM lurbinectedin were inoculated subcutaneously (s.c.) into immunocompetent C57BL/6 mice, which were rechallenged 7 days later s.c. with living cells of the same type. The tumour growth was measured until endpoints were reached and overall survival was evaluated regularly for the following 30 days (n=6). (*p<. 01, two-tailed Student's t test, compared to all other groups). Data were analyzed with TumGrowth.
In order to assess the capacity of lurbinectedin to stimulate anticancer immunity in a monotherapeutic approach and to convert tumour cells into a therapeutic vaccine we exposed murine fibrosarcoma cells to the drug in vitro (in conditions previously established to induce a sufficient amplitude of cell death) and then injected the dying cancer cells into syngeneic immunocompetent mice. […] Next we evaluated the effect of lurbinectedin on established cancers growing on immunocompetent or immunodeficient mice. […]
Six- to eight-week-old female wild-type C57BL/6 and nu/nu mice were obtained from Envigo France (Huntingdon, UK) and were kept in the animal facility at the Gustave Roussy Campus Cancer in a specific pathogen-free and temperature-controlled environment with 12 h day, 12 h night cycles and received food and water ad libitum. […] Animals were monitored and tumour growth documented regularly until end-points were reached. […]

Structure (SMILES): COc1ccc2[nH]c3c(c2c1)CCN[C@]31CS[C@@H]2c3c(OC(C)=O)c(C)c4c(c3[C@H](COC1=O)N1[C@@H]2[C@H]2c3c(cc(C)c(OC)c3O)C[C@@H]([C@@H]1O)N2C)OCO4 [lurbinectedin]
- overall survival after rechallenge: increase
- tumour growth after rechallenge (p=0.0094): significantly reduced
